Key:
[1] = target: DNA topoisomerase 2-alpha (Homo sapiens) (UniProt P11388); test: Inhibition of recombinant human topoisomerase 2alpha assessed as relaxation of supercoiled plasmid pBR322 DNA at 100 uM by agarose gel electrophoresis relative to control
DU-145 = test: Antiproliferative activity against human DU-145 cells after 72 hrs by EZ-Cytox colorimetric assay; type: functional, cell-based; conditions: DU-145, 72 h
HCT-15 = test: Antiproliferative activity against human HCT-15 cells after 72 hrs by EZ-Cytox colorimetric assay; type: functional, cell-based; conditions: HCT-15, 72 h
HeLa = test: Antiproliferative activity against human HeLa cells after 72 hrs by EZ-Cytox colorimetric assay; type: functional, cell-based
T47D = test: Antiproliferative activity against human T47D cells after 72 hrs by EZ-Cytox colorimetric assay; type: functional, cell-based
[2] = Genotoxicity in human HCT-15 cells assessed as production of Ub1-gamma-H2AX at 2 uM and measured by western blot analysis; type: toxicity, cell-based; conditions: hct-15, 2 µM
[3] = Genotoxicity in human HCT-15 cells assessed as production of gamma-H2AX at 2 uM and measured by western blot analysis; type: toxicity, cell-based; conditions: hct-15, 2 µM
[4] = Genotoxicity in human HCT-15 cells assessed as production of fragmented DNA tails at 2 uM and measured by comet assay; type: toxicity, cell-based; conditions: hct-15, 2 µM
[5] = Genotoxicity in human HCT-15 cells assessed as production of Ub1-gamma-H2AX at 0.2 uM and measured by western blot analysis; type: toxicity, cell-based; conditions: hct-15, 0.2 µM
[6] = Genotoxicity in human HCT-15 cells assessed as production of gamma-H2AX at 0.2 uM and measured by western blot analysis; type: toxicity, cell-based; conditions: hct-15, 0.2 µM
[7] = Genotoxicity in human HCT-15 cells assessed as production of fragmented DNA tails at 0.2 uM and measured by comet assay; type: toxicity, cell-based; conditions: hct-15, 0.2 µM
[8] = Toxicity in mouse assessed as reduction in number of white blood cells at 2 to 20 mg/kg; type: organism-based; conditions: in vivo, dose 2-20 mg/kg
[9] = Toxicity in mouse assessed as reduction in number of absolute neutrophil count at 2 to 20 mg/kg; type: organism-based; conditions: dose 2-20 mg/kg
[10] = Toxicity in mouse assessed as reduction in number of red blood cells at 20 mg/kg; type: organism-based; conditions: in vivo
[11] = Toxicity in mouse assessed as reduction in hemoglobin level at 20 mg/kg; type: organism-based; conditions: in vivo
[12] = Toxicity in mouse assessed as increase in mean corpuscular volume of RBC at 20 mg/kg; type: organism-based, Erythrocyte; conditions: in vivo
[13] = Toxicity in mouse assessed as increase in d red cell distribution width at 20 mg/kg; type: organism-based; conditions: in vivo
[14] = Toxicity in mouse assessed as reduction in number of red blood cells at 2 mg/kg; type: organism-based; conditions: in vivo
[15] = Toxicity in mouse assessed as reduction in hemoglobin level at 2 mg/kg; type: organism-based; conditions: in vivo
[16] = Toxicity in mouse assessed as increase in mean corpuscular volume of RBC at 2 mg/kg; type: organism-based, Erythrocyte; conditions: in vivo
[17] = Toxicity in mouse assessed as increase in d red cell distribution width at 2 mg/kg; type: organism-based; conditions: in vivo
[18] = target: T1, DNA topoisomerase 1 (Homo sapiens) (UniProt P11387); test: Inhibition of recombinant human topoisomerase 1 assessed as relaxation of supercoiled plasmid pBR322 DNA at 20 uM by agarose gel electrophoresis relative to control
T1 sequence (whole entry): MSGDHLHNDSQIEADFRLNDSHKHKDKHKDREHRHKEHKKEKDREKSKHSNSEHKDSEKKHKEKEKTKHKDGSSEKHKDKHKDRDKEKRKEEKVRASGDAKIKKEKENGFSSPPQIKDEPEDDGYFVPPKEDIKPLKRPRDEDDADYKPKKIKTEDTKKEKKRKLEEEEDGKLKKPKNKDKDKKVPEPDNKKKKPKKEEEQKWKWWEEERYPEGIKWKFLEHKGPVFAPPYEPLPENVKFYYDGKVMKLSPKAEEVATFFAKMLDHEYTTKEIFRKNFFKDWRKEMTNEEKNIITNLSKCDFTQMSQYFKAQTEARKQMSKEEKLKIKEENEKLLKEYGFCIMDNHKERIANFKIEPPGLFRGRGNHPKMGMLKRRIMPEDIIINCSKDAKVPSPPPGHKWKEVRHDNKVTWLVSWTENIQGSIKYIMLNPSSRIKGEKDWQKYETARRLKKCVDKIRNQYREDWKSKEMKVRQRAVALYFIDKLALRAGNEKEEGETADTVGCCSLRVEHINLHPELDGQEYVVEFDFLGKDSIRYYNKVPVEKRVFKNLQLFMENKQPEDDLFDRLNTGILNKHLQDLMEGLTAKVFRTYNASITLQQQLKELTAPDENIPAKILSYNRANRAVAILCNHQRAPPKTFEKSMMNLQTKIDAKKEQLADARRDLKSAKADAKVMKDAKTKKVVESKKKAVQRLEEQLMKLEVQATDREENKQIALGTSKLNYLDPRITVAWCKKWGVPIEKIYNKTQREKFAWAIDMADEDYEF

[19] = Genotoxicity in human HCT-15 cells assessed as production of Ub1-gamma-H2AX at 100 nM and measured by western blot analysis; type: toxicity, cell-based; conditions: hct-15, 0.1 µM
[20] = Genotoxicity in human HCT-15 cells assessed as production of gamma-H2AX at 100 nM and measured by western blot analysis; type: toxicity, cell-based; conditions: hct-15, 0.1 µM
[21] = Genotoxicity in human HCT-15 cells assessed as production of fragmented DNA tails at 100 nM and measured by comet assay; type: toxicity, cell-based; conditions: hct-15, 0.1 µM
[22] = Genotoxicity in human HCT-15 cells assessed as production of Ub1-gamma-H2AX at 1 nM and measured by western blot analysis; type: toxicity, cell-based; conditions: hct-15, 0.001 µM
[23] = Genotoxicity in human HCT-15 cells assessed as production of gamma-H2AX at 1 nM and measured by western blot analysis; type: toxicity, cell-based; conditions: hct-15, 0.001 µM
[24] = Genotoxicity in human HCT-15 cells assessed as production of fragmented DNA tails at 1 nM and measured by comet assay; type: toxicity, cell-based; conditions: hct-15, 0.001 µM
[25] = target: T1, DNA topoisomerase 1 (Homo sapiens); test: Inhibition of recombinant human topoisomerase 1 assessed as relaxation of supercoiled plasmid pBR322 DNA at 100 uM by agarose gel electrophoresis (reference value: […]%)
[26] = target: DNA topoisomerase 2-alpha (Homo sapiens) (UniProt P11388); test: Inhibition of recombinant human topoisomerase 2alpha assessed as relaxation of supercoiled plasmid pBR322 DNA at 100 uM by agarose gel electrophoresis (reference value: 84.9%)
[27] = target: DNA topoisomerase 2-alpha (Homo sapiens) (UniProt P11388); test: Inhibition of recombinant human topoisomerase 2alpha assessed as relaxation of supercoiled plasmid pBR322 DNA at 20 uM by agarose gel electrophoresis relative to control
[28] = target: T1, DNA topoisomerase 1 (Homo sapiens); test: Inhibition of recombinant human topoisomerase 1 assessed as relaxation of supercoiled plasmid pBR322 DNA at 100 uM by agarose gel electrophoresis relative to control

DNA topoisomerase 2-alpha (Homo sapiens), sequence (P11388 whole entry): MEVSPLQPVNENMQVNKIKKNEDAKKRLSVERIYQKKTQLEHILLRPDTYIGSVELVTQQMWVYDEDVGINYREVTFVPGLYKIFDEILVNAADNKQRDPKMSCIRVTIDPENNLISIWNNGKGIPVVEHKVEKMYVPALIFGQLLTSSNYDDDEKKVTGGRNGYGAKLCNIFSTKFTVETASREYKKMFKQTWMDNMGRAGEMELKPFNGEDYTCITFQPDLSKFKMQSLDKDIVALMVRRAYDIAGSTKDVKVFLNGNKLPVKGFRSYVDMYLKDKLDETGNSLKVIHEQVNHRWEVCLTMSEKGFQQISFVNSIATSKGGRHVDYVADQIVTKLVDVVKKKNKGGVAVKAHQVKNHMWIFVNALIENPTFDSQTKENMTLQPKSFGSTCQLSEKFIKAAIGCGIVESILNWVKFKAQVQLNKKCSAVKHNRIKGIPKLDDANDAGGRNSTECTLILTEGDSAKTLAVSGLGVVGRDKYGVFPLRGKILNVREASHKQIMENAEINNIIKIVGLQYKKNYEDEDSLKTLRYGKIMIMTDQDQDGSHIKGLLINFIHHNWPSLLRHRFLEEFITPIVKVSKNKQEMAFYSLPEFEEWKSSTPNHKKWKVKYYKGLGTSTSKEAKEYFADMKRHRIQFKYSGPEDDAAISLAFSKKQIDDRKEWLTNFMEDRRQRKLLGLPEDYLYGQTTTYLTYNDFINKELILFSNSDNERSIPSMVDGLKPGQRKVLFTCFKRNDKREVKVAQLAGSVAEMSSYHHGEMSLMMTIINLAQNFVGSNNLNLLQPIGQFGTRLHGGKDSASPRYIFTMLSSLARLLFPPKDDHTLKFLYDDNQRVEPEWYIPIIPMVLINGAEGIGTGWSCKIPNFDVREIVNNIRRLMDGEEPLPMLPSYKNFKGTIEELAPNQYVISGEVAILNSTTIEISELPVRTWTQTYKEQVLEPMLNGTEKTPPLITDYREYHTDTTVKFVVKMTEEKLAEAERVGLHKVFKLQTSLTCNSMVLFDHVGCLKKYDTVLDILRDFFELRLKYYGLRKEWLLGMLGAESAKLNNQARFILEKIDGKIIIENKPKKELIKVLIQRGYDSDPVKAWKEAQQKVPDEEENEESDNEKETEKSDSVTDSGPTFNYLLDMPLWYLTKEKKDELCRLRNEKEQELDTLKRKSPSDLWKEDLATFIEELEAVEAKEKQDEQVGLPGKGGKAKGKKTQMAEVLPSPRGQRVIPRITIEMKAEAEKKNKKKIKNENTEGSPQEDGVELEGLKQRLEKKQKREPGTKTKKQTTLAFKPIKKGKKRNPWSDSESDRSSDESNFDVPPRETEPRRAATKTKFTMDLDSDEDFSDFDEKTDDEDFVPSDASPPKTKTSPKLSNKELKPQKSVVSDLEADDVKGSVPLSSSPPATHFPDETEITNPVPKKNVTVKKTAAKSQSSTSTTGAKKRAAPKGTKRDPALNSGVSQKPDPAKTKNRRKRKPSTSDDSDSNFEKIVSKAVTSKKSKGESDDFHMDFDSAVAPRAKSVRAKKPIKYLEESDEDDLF

`O=C1c2ccccc2-c2nc(-c3ccccc3)cc(-c3ccccc3)c21` showed an inhibition [1] of 2.5%.
With `COc1cc([C@@H]2c3cc4c(cc3[C@@H](O[C@@H]3O[C@@H]5CO[C@@H](C)O[C@H]5[C@H](O)[C@H]3O)[C@H]3COC(=O)[C@H]23)OCO4)cc(OC)c1O` [ETOPOSIDE] the IC50 (DU-145) was 4.13 µM, the IC50 (HCT-15) was 2.38 µM and the IC50 (HeLa) was 8.09 µM. The IC50 (T47D) was 5.58 µM, the Activity [2] was “Toxic” and the Activity [3] was “Toxic”. For the same molecule, the Activity [4] was “Toxic”, the Activity [5] was “Non-Toxic” and the Activity [6] was “Non-Toxic”. For the same molecule, the Activity [7] was “Non-Toxic”, the Activity [8] was “Toxic” and the Activity [9] was “Toxic”. The Activity [10] was “Toxic”, the Activity [11] was “Toxic” and the Activity [12] was “Toxic”. For the same molecule, the Activity [13] was “Toxic”, the Activity [14] was “Non-Toxic” and the Activity [15] was “Non-Toxic”. The Activity [16] was “Non-Toxic” and the Activity [17] was “Non-Toxic”.
Molecule `OC1c2ccccc2-c2nc(-c3ccccc3)cc(-c3ccccc3)c21` (stereo unspecified) has an inhibition [18] of 0%.
For `CC[C@@]1(O)C(=O)OCc2c1cc1n(c2=O)Cc2cc3ccccc3nc2-1` [CAMPTOTHECIN], the IC50 (DU-145) was 0.21 µM, the IC50 (HeLa) was 0.23 µM and the IC50 (T47D) was 0.09 µM. For the same molecule, the Activity [19] was “Toxic”, the Activity [20] was “Toxic” and the Activity [21] was “Toxic”. The Activity [22] was “Non-Toxic”, the Activity [23] was “Non-Toxic” and the Activity [24] was “Non-Toxic”.
For `OC1c2ccccc2-c2nc(-c3ccccc3OC(F)(F)F)cc(-c3ccccc3)c21` (stereo unspecified), the inhibition [25] was 37.4%, the inhibition [18] was 1% and the inhibition [26] was 86%. The inhibition [27] was 13.8%, the IC50 (DU-145) was 0.71 µM and the IC50 (HCT-15) was 7.33 µM. For the same molecule, the IC50 (HeLa) was 1730 µM and the IC50 (T47D) was 1.06 µM.
Molecule `O=C1c2ccccc2-c2nc(-c3ccc(O)cc3)cc(-c3ccccc3)c21` has an inhibition [28] of 0%.
For `O=C1c2ccccc2-c2nc(-c3ccccc3O)cc(-c3ccccc3)c21`, the inhibition [28] was 0%.

Reference: ChEMBL document CHEMBL5143515, “Identification of new halogen-containing 2,4-diphenyl indenopyridin-5-one derivative as a boosting agent for the anticancer responses of clinically available topoisomerase inhibitors” (Eur J Med Chem, 2022)
